From patent EP4733303A1, “MUSCARINIC M4 RECEPTOR AGONIST AND USE THEREOF” (Haisco Pharmaceutical Group Co., Ltd., priority 2023, dated 2024)
pEC50: −log10 of the molar value.

Experiments:
[1] = target: T1, M4 receptor (Homo sapiens, UniProt P08173); assay: PAM agonistic activity of compound on M4 receptor (FLIPR Calcium 6 assay in M4-CHO cells); type: cell-based; conditions: with acetylcholine (Ach), final concentration 3 nM
T1 construct: expressed in transfected cells; host or cells: CHO (M4-CHO cells)
T1 sequence (P08173 1-479): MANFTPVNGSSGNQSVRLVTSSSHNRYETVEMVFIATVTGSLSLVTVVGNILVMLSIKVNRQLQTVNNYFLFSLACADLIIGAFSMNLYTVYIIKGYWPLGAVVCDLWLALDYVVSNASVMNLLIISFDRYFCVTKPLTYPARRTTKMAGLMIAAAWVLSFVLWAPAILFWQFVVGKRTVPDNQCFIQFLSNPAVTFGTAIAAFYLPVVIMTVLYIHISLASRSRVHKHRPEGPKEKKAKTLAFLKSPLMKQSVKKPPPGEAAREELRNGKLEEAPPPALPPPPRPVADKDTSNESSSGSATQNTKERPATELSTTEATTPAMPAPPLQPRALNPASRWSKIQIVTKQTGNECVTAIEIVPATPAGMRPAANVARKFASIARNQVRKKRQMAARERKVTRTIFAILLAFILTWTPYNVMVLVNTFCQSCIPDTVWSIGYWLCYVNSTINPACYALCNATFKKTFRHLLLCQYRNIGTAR
Procedure: • 1). Cell plating: M4-CHO cells were digested, collected, and resuspended. After cell counting, the cell suspension was seeded into a 384-well cell plate at a density of: 1.2 × 10^4 cells/25 µL/well. The cell plate was then cultured in a 37°C, 5% CO2 incubator for about 16-20 h. • 2). Day 2: Assay Buffer was prepared according to the instructions of the FLIPR Calcium 6 Assay Kit. Component A (20×) was thawed to room temperature and diluted with the Assay Buffer to prepare a loading buffer (1×), which was stored at room temperature until use. • 3). The culture medium was removed from the cell plate. 40 µL of the loading buffer (1×) was quickly added to each well. The cell plate was then centrifuged and incubated at 37°C in the dark for 120 min. • 4). Working solutions of the positive control compound and the test compounds were prepared. An acetylcholine (Ach) agonist compound solution was prepared (final concentration: 3 nM). The PAM compound and the Ach agonist solution were mixed at a 1 : 1 ratio, and the mixture was transferred into a 384-well compound source plate at 20 µL per well. • 5). The cell plate, the compound source plate, and the pipette tips were placed into the corresponding positions within the FLIPR instrument. 10 µL of the diluted compound from step 4 was added into each experimental well using the FLIPR Tetra. Data was collected at the wavelength of 515 nm-575 nm. • 6). The signal values were plotted against the compound concentrations. Nonlinear regression analysis was performed using GraphPad Prism software for curve fitting and EC50 calculation.
The experimental results are shown in Table 1, where A represents EC50 < […]; B represents 100 nM ≤ EC50 < 500 nM, and C represents 500 nM ≤ EC50. Table 1. Agonistic activity of compounds on M4 receptor

[2] = Pharmacokinetic test in rats (plasma and brain); type: in vivo, SD rats; conditions: for F: i.g. 10 mg/kg versus i.v. 2.5 mg/kg; for Cmax / clearance / half-life / AUC(0-t): plasma
From the text: 3.1 Experimental animals: male SD rats, about 220 g, 6-8 weeks old, divided into an intravenous group and an intragastric group.
3.2 Experimental design: on the day of the experiment, the SD rats were randomly grouped according to their body weights. […] Table 5. Administration information
(§1) The whole blood was centrifuged to separate the plasma; the brain tissue was rinsed with cold physiological saline to remove the residual blood on the surface, drained out and then homogenized. Before analysis and detection, all samples were stored at -80°C, and the samples were quantitatively analysed by LC-MS/MS. Table 6. Pharmacokinetic parameters of test compound in plasma of rats

[3] = Pharmacokinetic test in mice (plasma and brain); type: in vivo, C57 mice; conditions: for F: i.g. 10 mg/kg versus i.v. 2.5 mg/kg; for Kp / AUC(0-t) / Cmax / clearance / half-life: mouse; for Kp: read-out: Brain/plasma ratio
From the text: 2.1 Experimental animals: male C57 mice, 20-25 g, divided into an intravenous group and an intragastric group.
2.2 Experimental design: on the day of the experiment, the C57 mice were randomly grouped according to their body weights. […] Table 2. Administration information
as §1, with “3.” for “6.”, “compounds” for “compound”, “mice” for “plasma of rats”

[4] = Pharmacokinetic test in monkeys; type: in vivo; conditions: male cynomolgus monkeys
Procedure: Experimental animals: male cynomolgus monkeys, 3-5 kg, 3-6 years old, divided into an intravenous group and an intragastric group.
Experimental method: on the day of the experiment, the monkeys were randomly grouped according to their body weights. […] Table 9. Administration information
Before and after the administration, 1.0 mL of blood was taken from the limb veins and placed in an EDTAK2 centrifuge tube. Centrifugation was carried out at 5000 rpm at 4°C for 10 min, and the plasma was collected. […] Before analysis and detection, all samples were stored at -80°C, and the samples were quantitatively analysed by LC-MS/MS. Table 10. Pharmacokinetic parameters of test compound in plasma of monkeys

[5] = rat, in vivo, male SD rats, i.v. 2.5 mg/kg and i.g. 10 mg/kg groups, route of the parameter not given
[6] = male C57 mice, plasma, i.v. 2.5 mg/kg and i.g. 10 mg/kg groups, route of the parameter not given
[7] = male C57 mice, plasma, i.v. 2.5 mg/kg and i.g. 10 mg/kg groups, route of the parameter not given, read-out: AUC0-t
[8] = in vivo, male C57 mice, plasma, i.v. 2.5 mg/kg and i.g. 10 mg/kg groups, route of the parameter not given
[9] = rat, male SD rats, i.v. 2.5 mg/kg and i.g. 10 mg/kg groups, route of the parameter not given
[10] = cynomolgus monkey, plasma, i.v. 1 mg/kg and i.g. 5 mg/kg groups, route of the parameter not given

With `Cc1cc(C)c2c(n1)CN(C(=O)CC1CN(c3ccnc(-n4ccc(C)n4)c3)C1)C2` [Compound 29] the pEC50 [1] was > 7.00, the F ([2]; male SD rats) was >98% and the Cmax [2, 5] was 7.96 µg/mL. The clearance [2, 5] was 1.13 L/h/kg, the half-life [2, 5] was 0.646 h and the AUC(0-t) ([2]; rat, in vivo, male SD rats, i.v. 2.5 mg/kg and i.g. 10 mg/kg groups, route of the parameter not given, read-out: AUC0-t) was 12.2 µg·h/mL.

For `Cc1cc(-c2cnn(C)c2)nc2c1CN(C(=O)CC1CN(c3ccnc(OC4CC(F)(F)C4)c3)C1)C2` [Compound 104], the pEC50 [1] was > 7.00, the F ([3]; male C57 mice) was >98% and the “Brain tissue AUC0-t” value ([3]; mice, i.g. (10 mg/kg)) was 4776 ng·h/g. The Kp ([3]; in vivo, po, mice, i.g. (10 mg/kg)) was 0.528, the AUC(0-t) ([3]; in vivo, po, mice, i.g. (10 mg/kg), read-out: Plasma AUC0-t) was 2.52 µg·h/mL and the Cmax [3, 6] was 4.54 µg/mL. For the same molecule, the clearance [3, 6] was 0.666 L/h/kg, the half-life [3, 6] was 2.2 h and the AUC(0-t) [3, 7] was 16.9 µg·h/mL.

With `Cc1nc(-c2cnn(C)c2)nc2c1CN(C(=O)CC1CN(c3ccnc(C(F)(F)F)c3)C1)C2` [Compound 122] the pEC50 [1] was > 7.00, the F ([3]; male C57 mice) was >98% and the Cmax [3, 8] was 6.4 µg/mL. It also gave a clearance [3, 8] of 0.554 L/h/kg, a half-life [3, 8] of 2.94 h and an AUC(0-t) ([3]; in vivo, male C57 mice, plasma, i.v. 2.5 mg/kg and i.g. 10 mg/kg groups, route of the parameter not given, read-out: AUC0-t) of 26.3 µg·h/mL.

In the case of `Cc1cc(=O)n(C(F)F)c2c1CN(C(=O)CC1CN(c3ccnc(OC4CC(F)(F)C4)c3)C1)C2` [Compound 128], the pEC50 [1] was > 7.00, the F ([3]; male C57 mice) was >98% and the “Brain tissue AUC0-t” value ([3]; mice, i.g. (10 mg/kg)) was 5618 ng·h/g. The Kp ([3]; brain/plasma, po, mice, i.g. (10 mg/kg)) was 0.581, the AUC(0-t) ([3]; plasma, po, mice, i.g. (10 mg/kg), read-out: Plasma AUC0-t) was 9.68 µg·h/mL and the Cmax [3, 6] was 6.03 µg/mL. The clearance [3, 6] was 0.415 L/h/kg, the half-life [3, 6] was 2.25 h and the AUC(0-t) [3, 7] was 25.7 µg·h/mL. For the same molecule, the F ([2]; male SD rats) was >98%, the Kp ([2]; rat, brain/plasma, po, rats, i.g. (10 mg/kg), read-out: Brain/plasma ratio) was 0.497 and the AUC(0-t) ([2]; rat, po, rats, i.g. (10 mg/kg), read-out: Plasma AUC0-t) was 46.1 µg·h/mL. It also gave a Cmax [2, 9] of 5.14 µg/mL, a clearance [2, 9] of 0.38 L/h/kg and a half-life [2, 9] of 4.68 h. The AUC(0-t) ([2]; rat, male SD rats, i.v. 2.5 mg/kg and i.g. 10 mg/kg groups, route of the parameter not given, read-out: AUC0-t) was 34 µg·h/mL, the “Brain tissue AUC0-t” value ([2]; rats, i.g. (10 mg/kg)) was 22917 ng·h/g and the AUC(0-t) [4, 10] was 5.94 µg·h/mL. It also gave a Cmax [4, 10] of 0.495 µg/mL, a clearance [4, 10] of 0.606 L/h/kg and a half-life [4, 10] of 7.19 h. The F ([4]; i.g. 5 mg/kg versus i.v. 1 mg/kg) was 71.4%.

For `Cc1c2c(n(C)c(=O)c1F)CN(C(=O)CC1CN(c3ccnc(OC4CCOC4)c3)C1)C2` (stereo not shown) [Compound 199], the pEC50 [1] was > 7.00.

In the case of `Cc1cc(=O)n(C(F)F)c2c1CN(C(=O)CC1CN(c3ccnc(OC4CC(=C(F)F)C4)c3)C1)C2` (stereo not shown) [Compound 200], the pEC50 [1] was > 7.00.

In the case of `Cc1c2c(n(C(F)F)c(=O)c1F)CN(C(=O)CC1CN(c3ccnc(OC4CC(=C(F)F)C4)c3)C1)C2` (stereo not shown) [Compound 201], the pEC50 [1] was > 7.00.

With `Cc1cc(-c2cnn(C)c2)nc2c1CN(C(=O)CC1CN(c3nc(C4CC4)ncc3F)C1)C2` [Compound 204] the pEC50 [1] was > 7.00.

For `Cc1nc(-c2cnn(C)c2)nc2c1CN(C(=O)CC1CN(c3nc(C4CC4)ncc3F)C1)C2` [Compound 207], the pEC50 [1] was > 7.00.

With `Cc1ccn(-c2cc(N3CC(CC(=O)N4Cc5c(C)c(F)c(=O)n(C(F)F)c5C4)C3)ccn2)n1` [Compound 208] the pEC50 [1] was > 7.00.

In the case of `Cc1ccn(-c2cc(N3CC(CC(=O)N4Cc5c(C)c(F)c(=O)n(C)c5C4)C3)ccn2)n1` [Compound 209], the pEC50 [1] was > 7.00.

With `Cc1c2c(n(C)c(=O)c1F)CN(C(=O)CC1CN(c3ccnc(OC4CCOC4)c3)C1)C2` (stereo not shown) [Compound 210] the pEC50 [1] was > 7.00.

In the case of `Cc1ncn(-c2cc(N3CC(CC(=O)N4Cc5c(C)c(F)c(=O)n(C)c5C4)C3)ccn2)n1` [Compound 211], the pEC50 [1] was > 7.00.

For `Cc1c2c(n(C)c(=O)c1F)CN(C(=O)CC1CN(c3ccnc(OC4CC(=C(F)F)C4)c3)C1)C2` (stereo not shown) [Compound 213], the pEC50 [1] was > 7.00.

In the case of `Cc1c2c(n(C)c(=O)c1F)CN(C(=O)CC1CN(c3ccnc(Oc4cnn(C)c4)c3)C1)C2` [Compound 214], the pEC50 [1] was > 7.00.

With `Cc1c2c(n(C)c(=O)c1F)CN(C(=O)CC1CN(c3ccnc(OC4CC4)c3)C1)C2` [Compound 215] the pEC50 [1] was > 7.00.

In the case of `Cc1cc(-c2cnoc2)nc2c1CN(C(=O)CC1CN(c3ccnc(OC4CC(F)(F)C4)c3)C1)C2` [Compound 216], the pEC50 [1] was > 7.00.

For `Cc1cc(C)c2c(n1)CN(C(=O)CC1CN(c3ccnc(C(F)(F)F)c3)C1)C2` [DZ-01, reference compound], the F ([3]; male C57 mice) was >98%, the Cmax [3, 6] was 3.79 µg/mL and the clearance [3, 6] was 4.51 L/h/kg. For the same molecule, the half-life [3, 6] was 1.23 h and the AUC(0-t) [3, 7] was 3.61 µg·h/mL.
